Measured values published in patent publication US7468366B2, “Cytotoxic agents” (Rutgers, The State University of New Jersey, priority 2001, dated 2008).

| melting point | Compound |
| --- | --- |
| 299 °C | CCCCn1c(=O)c2cc(OC)c(OC)cc2c2nnc3cc4c(cc3c21)OCO4 [Example 10, 2,3-Dimethoxy-8,9-methylenedioxy-11-(n-butyl)-11H-5,6,11-triazachrysen-12-one] |
| 224 °C (dec.) | CCCCn1c(=O)c2cc(OC)c(OC)cc2c2cnc3cc4c(cc3c21)OCO4 [Example 11, 8,9-Dimethoxy-2,3-methylenedioxy-5-(butyl)-5H-dibenzo[c,h]1,6-naphthyridin-6-one] |
| 239 to 242 °C (dec.) | COc1cc2c(cc1OC)-c1cnc3cc4c(cc3c1OC2)OCO4 [Example 12, 8,9-Dimethoxy-2,3-methylenedioxy-6H-5-oxa-12-aza-chrysene] |
